Source: patent publication US6737383B1, “Herbicidal oxadiazolidines” (priority 1999, dated 2004)

Columns and labels:
[1] = test system: duck salad; assay: Test B flood test duck salad; format: in vivo, Heteranthera limosa; conditions: for Plant response rating, Ducksalad (0 to 10 scale, 0 is no effect, 10 is complete control): Rate 62 g/ha; for Plant response rating, Ducksalad (0 to 10 scale, 0 is no effect, 10 is complete control) / Ducksalad plant response rating (0 to 10 scale, 0 is no effect, 10 is complete control): visual evaluation after twelve to sixteen days; for Ducksalad plant response rating (0 to 10 scale, 0 is no effect, 10 is complete control): Rate 125 g/ha, under heading Pre-emergence
Summary of the method: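 Plants were grown to the 2-leaf stage before treatment with test chemical, then held in a greenhouse for twelve to sixteen days. Injury was visually rated against untreated controls on a 0–10 scale, where 0 is no effect and 10 is complete control.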

[2] = test system: rape; assay: Test B pre/postemergence rape; format: in vivo, Brassica napus
Summary of the method: (§1)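 Herbicidal effect was estimated by eye on a ten-point control scale after plants spent twelve to sixteen days in a greenhouse following soil or foliar treatment. Foliar sprays targeted plants at one to four leaves; all doses were formulated in a non-phytotoxic solvent with surfactant.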

[3] = test system: wheat; assay: Test B pre/postemergence wheat; format: in vivo, Triticum aestivum
Summary of the method: as §1

[4] = test system: morningglory; assay: Test B pre/postemergence morningglory; format: in vivo, Ipomoea hederacea
Summary of the method: as §1

[5] = flood test species, Pre-emergence
[6] = Rate 250 g/ha, Pre-emergence (flood test species), scale 0 to 10, 0 is no effect, 10 is complete control
[7] = Postemergence, Rate 250 g/ha, scale 0 to 10
[8] = Preemergence, Rate 62 g/ha, scale of 0 to 10 where 0 is no effect and 10 is complete control
[9] = Preemergence, Rate 125 g/ha, scale of 0 to 10 where 0 is no effect and 10 is complete control
[10] = Preemergence, Rate 250 g/ha, scale 0 to 10, 0 is no effect, 10 is complete control
[11] = Preemergence, Rate 500 g/ha, scale 0 to 10, 0 is no effect, 10 is complete control
[12] = Rate 62 g/ha, Postemergence, scale 0 to 10 (0 no effect, 10 complete control)
[13] = Rate 125 g/ha, Postemergence, scale 0 to 10, 0 is no effect, 10 is complete control
[14] = Rate 500 g/ha, Pre-emergence section of Table B, 0 to 10 scale (0 no effect, 10 complete control)
[15] = Postemergence, Rate 62 g/ha, scale of 0 to 10, 0 is no effect, 10 is complete control
[16] = Postemergence, Rate 125 g/ha, scale 0 to 10, 0 is no effect, 10 is complete control
[17] = Postemergence, Rate 500 g/ha, scale 0 to 10, 0 is no effect, 10 is complete control
[18] = Preemergence, Rate 125 g/ha, scale 0 to 10, 0 is no effect, 10 is complete control
[19] = Preemergence, Rate 500 g/ha, scale of 0 to 10 where 0 is no effect and 10 is complete control
[20] = Rate 250 g/ha, Postemergence, scale of 0 to 10 where 0 is no effect and 10 is complete control
[21] = Postemergence, Rate 500 g/ha, scale of 0 to 10 where 0 is no effect and 10 is complete control
[22] = Preemergence, Rate 62 g/ha, scale 0 to 10 (0 no effect, 10 complete control)
[23] = Postemergence, Rate 125 g/ha, scale of 0 to 10 where 0 is no effect and 10 is complete control

Row | SMILES | Plant response rating, Ducksalad (0 to 10 scale, 0 is no effect, 10 is complete control) [1, 5] | Ducksalad plant response rating (0 to 10 scale, 0 is no effect, 10 is complete control) ([1]; flood test species) | Ducksalad plant response rating [1, 6] | Plant response rating, Rape [2, 8] | Plant response rating, Wheat [3, 8] | Plant response rating, Morningglory [4, 8] | Ducksalad plant response rating [1, 14] | Rape plant response rating [2, 15] | Rape plant response rating [2, 16] | Rape plant response rating [2, 18] | Rape plant response rating (0 to 10 scale) ([2]; Preemergence, Rate 250 g/ha) | Rape plant response rating [2, 19] | Plant response rating, Rape [2, 20] | Wheat plant response rating (0 to 10 scale) ([3]; Preemergence, Rate 250 g/ha) | Wheat plant response rating [3, 19] | Plant response rating, Wheat [3, 20] | Morningglory plant response rating [4, 15] | Morningglory plant response rating (0 to 10 scale) ([4]; Preemergence, Rate 250 g/ha) | Morningglory plant response rating [4, 19] | Plant response rating, Morningglory [4, 20] | also measured
1 | CC(C)N(C(=O)n1oc(=O)n(C(C)C(=O)N(C)C)c1=O)c1ccccc1 (centres unmarked) [Compound 479] | 0 | 0 | 0 | 0 | 0 | 0 | – | – | – | – | – | – | – | – | – | – | – | – | – | – | Ducksalad plant response rating ([1]; Rate 500 g/ha, Pre-emergence, flood test species, scale 0 to 10 (0 no effect, 10 complete control)): 0; Rape plant response rating [2, 7]: 0; Plant response rating, Rape [2, 9]: 0; Rape plant response rating [2, 10]: 1; Rape plant response rating [2, 11]: 4; Rape plant response rating [2, 12]: 0; Rape plant response rating [2, 13]: 0; Wheat plant response rating [3, 7]: 0; Plant response rating, Wheat [3, 9]: 0; Wheat plant response rating [3, 10]: 3; Wheat plant response rating [3, 11]: 7; Wheat plant response rating [3, 12]: 0; Wheat plant response rating [3, 13]: 0; Morningglory plant response rating [4, 7]: 10; Plant response rating, Morningglory [4, 9]: 0; Morningglory plant response rating [4, 10]: 4; Morningglory plant response rating [4, 11]: 4; Morningglory plant response rating [4, 12]: 7; Morningglory plant response rating [4, 13]: 10
2 | CC(C)N(C(=O)n1oc(=O)n(CC2CCC2)c1=O)c1ccc(F)cc1F [Compound 521] | 0 | 0 | 0 | 0 | 0 | 0 | 0 | 0 | 0 | 0 | 2 | 2 | 2 | 0 | 0 | 0 | 3 | 0 | 0 | 3 | Plant response rating, Rape [2, 17]: 3; Wheat plant response rating [3, 15]: 0; Wheat plant response rating [3, 16]: 0; Plant response rating, Wheat [3, 17]: 2; Wheat plant response rating [3, 18]: 0; Morningglory plant response rating [4, 16]: 4; Plant response rating, Morningglory [4, 17]: 5; Morningglory plant response rating [4, 18]: 0
3 | CC(C)N(C(=O)n1oc(=O)n(CCC2OCCCO2)c1=O)c1ccccc1 [Compound 561] | 0 | 0 | 0 | – | – | – | 0 | 4 | 4 | 2 | 5 | 9 | 4 | 6 | 9 | 3 | 1 | 2 | 4 | 5 | Plant response rating, Rape [2, 21]: 4; Rape plant response rating [2, 22]: 2; Wheat plant response rating [3, 15]: 0; Plant response rating, Wheat [3, 21]: 7; Wheat plant response rating [3, 22]: 0; Wheat plant response rating [3, 18]: 4; Morningglory plant response rating [4, 16]: 4; Plant response rating, Morningglory [4, 21]: 9; Morningglory plant response rating [4, 22]: 0; Morningglory plant response rating [4, 18]: 0
4 | CC(C)N(C(=O)n1oc(=O)n(CC2CCC2)c1=O)c1ccccc1 [Compound 580] | 0 | 0 | 0 | – | – | – | 0 | 4 | – | – | 7 | 8 | 7 | 2 | 5 | 0 | 7 | 0 | 0 | 8 | Plant response rating, Rape [2, 23]: 6; Plant response rating, Rape [2, 21]: 8; Rape plant response rating [2, 22]: 0; Rape plant response rating [2, 9]: 3; Plant response rating, Wheat [3, 23]: 0; Plant response rating, Wheat [3, 21]: 3; Wheat plant response rating [3, 22]: 0; Wheat plant response rating [3, 9]: 0; Plant response rating, Morningglory [4, 23]: 7; Plant response rating, Morningglory [4, 21]: 10; Morningglory plant response rating [4, 22]: 0; Morningglory plant response rating [4, 9]: 0
